From ChEMBL document CHEMBL4421717, “Antagonists and agonists of bitter taste receptors and uses thereof” (2012) come the findings set out here.

By IC50 is commonly meant the point on the concentration scale where inhibition reaches its midpoint.

The source made the active and inactive calls. No cut-off for these calls is given here.

Format in all cases: functional, cell-based
Assay [1] concerns the target T1, Taste receptor type 2 member 39 (Homo sapiens) (UniProt P59534).
T1 sequence (whole entry): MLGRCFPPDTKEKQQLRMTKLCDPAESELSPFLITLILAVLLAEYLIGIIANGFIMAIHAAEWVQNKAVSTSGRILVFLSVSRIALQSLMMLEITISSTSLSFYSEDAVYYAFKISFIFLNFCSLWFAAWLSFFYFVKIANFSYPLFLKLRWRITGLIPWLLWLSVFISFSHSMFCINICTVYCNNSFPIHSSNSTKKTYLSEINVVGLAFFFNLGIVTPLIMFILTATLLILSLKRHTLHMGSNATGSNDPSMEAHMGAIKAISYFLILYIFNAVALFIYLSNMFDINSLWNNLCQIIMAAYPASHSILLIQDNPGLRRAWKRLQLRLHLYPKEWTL
Nature of the assay: Activity at recombinant human N-terminal rat ST3 receptor-fused TAS2R39 expressed in HEK293T cells co-expressing Galpha16gust44 assessed as effect on epigallocatechin gallate-induced intracellular calcium level at 100 uM by FLIPR assay. For orientation: A change in cytosolic calcium serves as a functional read-out for many receptors and channels.

The target in assay [2] is T2, Taste receptor type 2 member 46 (Homo sapiens, UniProt P59540).
T2 sequence (P59540 whole entry): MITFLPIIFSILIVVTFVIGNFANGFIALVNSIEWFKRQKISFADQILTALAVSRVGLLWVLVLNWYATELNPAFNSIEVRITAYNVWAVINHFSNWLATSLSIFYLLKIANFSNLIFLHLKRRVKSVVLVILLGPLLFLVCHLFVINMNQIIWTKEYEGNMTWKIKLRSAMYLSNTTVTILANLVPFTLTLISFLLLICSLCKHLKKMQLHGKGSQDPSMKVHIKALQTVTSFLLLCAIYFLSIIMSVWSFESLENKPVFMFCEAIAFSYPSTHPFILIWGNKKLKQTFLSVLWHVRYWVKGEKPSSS
Nature of the assay: Antagonist activity at recombinant human N-terminal rat ST3 receptor-fused TAS2R46 expressed in HEK293T cells co-expressing Galpha16gust44 assessed as inhibition of 3 uM strychnine-induced intracellular calcium level 100 uM by FLIPR assay.

Assay [3] addresses T3, Taste receptor type 2 member 38 (Homo sapiens) (UniProt P59533).
T3 sequence (whole entry): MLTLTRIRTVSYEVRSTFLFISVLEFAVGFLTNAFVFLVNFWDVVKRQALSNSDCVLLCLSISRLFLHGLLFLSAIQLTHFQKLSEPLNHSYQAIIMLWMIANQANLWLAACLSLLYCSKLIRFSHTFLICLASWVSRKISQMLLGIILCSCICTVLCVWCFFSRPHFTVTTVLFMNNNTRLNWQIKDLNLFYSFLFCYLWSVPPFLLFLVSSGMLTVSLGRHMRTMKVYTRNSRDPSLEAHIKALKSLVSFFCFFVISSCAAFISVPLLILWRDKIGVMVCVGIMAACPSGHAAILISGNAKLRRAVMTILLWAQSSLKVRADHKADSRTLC
In words: Activity at recombinant human N-terminal rat ST3 receptor-fused TAS2R38 expressed in HEK293T cells co-expressing Galpha16gust44 assessed as effect on phenylthiocarbamide-induced intracellular calcium level at 100 uM by FLIPR assay.

Assay [4] has as its target T4, Taste receptor type 2 member 1 (Homo sapiens) (UniProt Q9NYW7).
T4 sequence (whole entry): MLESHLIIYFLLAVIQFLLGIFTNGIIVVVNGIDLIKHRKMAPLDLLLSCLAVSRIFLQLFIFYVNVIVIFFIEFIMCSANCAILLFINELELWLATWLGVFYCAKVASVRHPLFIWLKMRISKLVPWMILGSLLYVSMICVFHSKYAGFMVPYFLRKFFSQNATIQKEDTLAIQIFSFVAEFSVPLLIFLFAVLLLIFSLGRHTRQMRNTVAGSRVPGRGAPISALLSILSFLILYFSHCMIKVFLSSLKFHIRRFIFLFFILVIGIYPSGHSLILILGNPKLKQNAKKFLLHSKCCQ
Nature of the assay: Activity at recombinant human N-terminal rat ST3 receptor-fused TAS2R1 expressed in HEK293T cells co-expressing Galpha16gust44 assessed as effect on trans-isocohumulone-induced intracellular calcium level at 100 uM by FLIPR assay.

Assay [5] deals with T5, Taste receptor type 2 member 3 (Homo sapiens) (UniProt Q9NYW6).
T5 sequence (whole entry): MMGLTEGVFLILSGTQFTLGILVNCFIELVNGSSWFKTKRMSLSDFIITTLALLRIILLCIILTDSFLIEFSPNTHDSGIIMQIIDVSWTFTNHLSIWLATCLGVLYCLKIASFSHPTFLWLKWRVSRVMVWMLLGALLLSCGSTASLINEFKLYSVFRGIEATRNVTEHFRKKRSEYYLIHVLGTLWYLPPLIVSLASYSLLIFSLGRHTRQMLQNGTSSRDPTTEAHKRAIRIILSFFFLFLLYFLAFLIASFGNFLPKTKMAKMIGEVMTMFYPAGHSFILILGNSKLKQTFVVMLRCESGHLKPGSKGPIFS
In words: Activity at recombinant human N-terminal rat ST3 receptor-fused TAS2R3 expressed in HEK293T cells co-expressing Galpha16gust44 assessed as effect on chloroquine-induced intracellular calcium level at 100 uM by FLIPR assay.

The target in assay [6] is T6, Taste receptor type 2 member 20 (Homo sapiens) (UniProt P59543).
T6 sequence (whole entry): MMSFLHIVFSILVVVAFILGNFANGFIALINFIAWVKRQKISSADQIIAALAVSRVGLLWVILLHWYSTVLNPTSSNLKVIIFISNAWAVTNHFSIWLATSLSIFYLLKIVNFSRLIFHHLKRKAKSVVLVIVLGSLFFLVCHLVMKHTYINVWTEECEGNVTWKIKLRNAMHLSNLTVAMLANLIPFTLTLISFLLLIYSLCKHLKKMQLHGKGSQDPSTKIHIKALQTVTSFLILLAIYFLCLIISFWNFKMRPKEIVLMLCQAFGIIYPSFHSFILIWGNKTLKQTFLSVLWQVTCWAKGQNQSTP
In words: Activity at recombinant human N-terminal rat ST3 receptor-fused TAS2R49 expressed in HEK293T cells co-expressing Galpha16gust44 assessed as effect on cromolyn-induced intracellular calcium level at 100 uM by FLIPR assay.

The target of assay [7] is T7, Taste receptor type 2 member 8 (Homo sapiens) (UniProt Q9NYW2).
T7 sequence (whole entry): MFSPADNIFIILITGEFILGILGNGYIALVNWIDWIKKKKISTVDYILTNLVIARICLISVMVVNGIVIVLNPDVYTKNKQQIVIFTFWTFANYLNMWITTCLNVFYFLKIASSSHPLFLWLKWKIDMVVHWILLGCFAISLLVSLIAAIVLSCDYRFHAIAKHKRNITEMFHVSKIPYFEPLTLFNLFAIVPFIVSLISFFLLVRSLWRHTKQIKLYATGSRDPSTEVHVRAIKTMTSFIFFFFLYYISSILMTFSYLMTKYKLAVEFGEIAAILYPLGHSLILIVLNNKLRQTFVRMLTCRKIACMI
In words: Activity at recombinant human N-terminal rat ST3 receptor-fused TAS2R8 expressed in HEK293T cells co-expressing Galpha16gust44 assessed as effect on chloramphenicol-induced intracellular calcium level at 100 uM by FLIPR assay.

Consider `C/C1=C\C[C@H](O)[C@@H](C)C[C@H]2OC(=O)[C@@H](C)C2CC1` (some centres undefined), for which the outcome in assay [1], in assay [3], in assay [4], in assay [5], in assay [6] and in assay [7] was inactive. For the same compound, in assay [2], the IC50 is 84.9 µM.
`C/C1=C\C[C@H](O)/C(C)=C/[C@H]2OC(=O)[C@@H](C)C2CC1` (some centres undefined): the outcome in assay [1], in assay [3], in assay [4], in assay [5], in assay [6] and in assay [7] was inactive. In assay [2], the concentration for half-maximal inhibition (IC50) came out at 15.3 µM.
